Data: ChEMBL document CHEMBL2021784, “Geopyxins A-E, ent-kaurane diterpenoids from endolichenic fungal strains Geopyxis aff. majalis and Geopyxis sp. AZ0066: structure-activity relationships of geopyxins and their analogues” (J Nat Prod, 2012)
The source made the active and inactive calls. No cut-off for these calls is given here.

Key:
Assay type in all cases: functional, cell-based
SF-268 [1] = test: Cytotoxicity against human SF268 cells after 72 hrs by Alamar blue assay; conditions: SF-268, 72 h
MCF7 [2] = test: Cytotoxicity against human MCF7 cells after 72 hrs by Alamar blue assay; conditions: MCF7, 72 h
NCI-H460 [3] = test: Cytotoxicity against human NCI-H460 cells after 72 hrs by Alamar blue assay; conditions: NCI-H460, 72 h
[4] = Cytotoxicity against human PC3M cells after 72 hrs by Alamar blue assay; conditions: PC-3M
MDA-MB-231 [5] = test: Cytotoxicity against human MDA-MB-231 cells after 72 hrs by Alamar blue assay; conditions: MDA-MB-231, 72 h
Fibroblast = test: Induction of heat shock response in mouse fibroblasts expressing GFP at 2.5 uM after overnight incubation by fluorescence assay
MDA-MB-231 [6] = test: Cytotoxicity against human MDA-MB-231 cells at 5 uM after 72 hrs by Alamar blue assay
MCF7 [7] = test: Cytotoxicity against human MCF7 cells at 5 uM after 72 hrs by Alamar blue assay
PC-3M = test: Cytotoxicity against human PC3M cells at 5 uM after 72 hrs by Alamar blue assay
SF-268 [8] = test: Cytotoxicity against human SF268 cells at 5 uM after 72 hrs by Alamar blue assay
NCI-H460 [9] = test: Cytotoxicity against human NCI-H460 cells at 5 uM after 72 hrs by Alamar blue assay

Row | SMILES | IC50 (SF-268 [1]) [µM] | IC50 (MCF7 [2]) [µM] | IC50 (NCI-H460 [3]) [µM] | IC50 [4] [µM] | IC50 (MDA-MB-231 [5]) [µM] | Activity (Fibroblast) | Activity (MDA-MB-231 [6]) | Activity (MCF7 [7]) | Activity (PC-3M) | Activity (SF-268 [8]) | Activity (NCI-H460 [9])
1 | COc1cccc2c1C(=O)c1c(O)c3c(c(O)c1C2=O)C[C@@](O)(C(=O)CO)C[C@@H]3O[C@H]1C[C@H](N)[C@H](O)[C@H](C)O1 [DOXORUBICIN] | 0.62 | 0.42 | 0.42 | 0.24 | 0.58 | – | – | – | – | – | –
2 | C=C1C(=O)[C@]23C[C@H]1CC[C@H]2[C@]1(C)[C@@H](OC(C)=O)CC[C@@](C)(C(=O)OC)[C@H]1C[C@@H]3O | 0.66 | 0.53 | 0.82 | 1.54 | 1.15 | Active | – | – | – | – | –
3 | C=C1C(=O)[C@]23C[C@H]1CC[C@H]2[C@]1(C)CCC[C@@](C)(C(=O)O)[C@H]1C[C@@H]3O [GEOPYXIN B] | 2.35 | 4.32 | 2.25 | 5.41 | 3.31 | Active | – | – | – | – | –
4 | C=C1C(=O)[C@]23C[C@H]1CC[C@H]2[C@]1(C)C(=O)CC[C@@](C)(C(=O)OC)[C@H]1C[C@@H]3O [METHYLGEOPYXIN C] | 1.56 | 1.67 | 2.28 | 3.63 | 3.38 | inactive | – | – | – | – | –
5 | C[C@]12[C@@H]3CC[C@@H]4C[C@]3(C(=O)[C@@H]4CO)[C@@H](O)C[C@@H]1[C@](C)(C(=O)O)CC[C@@H]2O | – | – | – | – | – | – | inactive | inactive | inactive | inactive | inactive
6 | COC(=O)[C@]1(C)CC[C@H](O)[C@@]2(C)[C@@H]3CC[C@@H]4C[C@]3(C(=O)[C@@H]4CO)[C@@H](O)C[C@@H]21 | – | – | – | – | – | – | inactive | inactive | inactive | inactive | inactive
7 | C=C1C(=O)[C@]23C[C@H]1C[C@H](O)[C@H]2[C@]1(C)CCC[C@@](C)(C(=O)O)[C@H]1C[C@@H]3O | – | – | – | – | – | – | inactive | inactive | inactive | inactive | inactive
8 | C=C1C(=O)[C@]23C[C@H]1CC[C@H]2[C@]1(C)[C@@H](O)[C@@H](O)C[C@@](C)(C(=O)O)[C@H]1C[C@@H]3O | – | – | – | – | – | – | inactive | inactive | inactive | inactive | inactive
9 | C=C1C(=O)[C@]23C[C@H]1CC[C@H]2[C@]1(C)CCC[C@@](C)(C(=O)OC)[C@H]1C[C@@H]3O [METHYLGEOPYXIN B] | 0.69 | 0.63 | 0.92 | 1.48 | 0.91 | inactive | – | – | – | – | –
10 | C=C1C(=O)[C@]23C[C@H]1CC[C@H]2[C@]1(C)[C@@H](OC(C)=O)CC[C@@](C)(C(=O)O)[C@H]1C[C@@H]3OC(C)=O | – | – | – | – | – | – | inactive | inactive | inactive | inactive | inactive
11 | C=C1C(=O)[C@]23C[C@H]1CC[C@H]2[C@]1(C)[C@@H](O)CC[C@@](C)(C(=O)OC)[C@H]1C[C@@H]3O [METHYLGEOPYXIN A] | 0.72 | 0.79 | 1.08 | 2.27 | 0.73 | inactive | – | – | – | – | –
12 | C=C1C(=O)[C@]23C[C@H]1CC[C@H]2[C@]1(C)C(=O)CC[C@@](C)(C(=O)O)[C@H]1C[C@@H]3O | – | – | – | – | – | – | inactive | inactive | inactive | inactive | inactive
13 | C=C1C(=O)[C@]23C[C@H]1CC[C@H]2[C@]1(C)[C@@H](OC(C)=O)CC[C@@](C)(C(=O)O)[C@H]1C[C@@H]3O | 2.37 | 3.48 | 3.52 | 3.88 | 4.11 | inactive | – | – | – | – | –
14 | C=C1C(=O)[C@]23C[C@H]1CC[C@H]2[C@]1(C)[C@@H](O)[C@@H](O)C[C@@](C)(C(=O)OC)[C@H]1C[C@@H]3O [METHYLGEOPYXIN E] | 1.02 | 2.08 | 2.27 | 3.99 | 3.81 | inactive | – | – | – | – | –
15 | C=C1C(=O)[C@]23C[C@H]1CC[C@H]2[C@]1(C)[C@@H](O)CC[C@@](C)(C(=O)O)[C@H]1C[C@@H]3O | – | – | – | – | – | – | inactive | inactive | inactive | inactive | inactive
16 | C=C1C(=O)[C@]23C[C@H]1CC[C@H]2[C@]1(C)[C@@H](OC(C)=O)CC[C@@](C)(C(=O)OC)[C@H]1C[C@@H]3OC(C)=O | 1.18 | 1.18 | 1.26 | 2.31 | 1.93 | inactive | – | – | – | – | –
